Experimental data: patent US20240285587A1, “NOVEL THERAPEUTIC AGENT THAT SUPPRESSES METASTASIS AND PROLIFERATION OF OSTEOSARCOMA AND GLIOMA” (JAPANESE FOUNDATION FOR CANCER RESEARCH, priority 2021, published 2024)
“Also recorded” adds a separate entry of the source.

What was measured:
HuO9/Akaluc cells = assay: Lung metastasis mouse model, intravenously injected HuO9/Akaluc cells, bioluminescent imaging; type: in vivo
Experimental: Into each female SCID-beige mouse (C.B-lgh-1b/GbmsTac-Prkdc^scid-Lyst^bgN7, Charles River Laboratories Japan, Inc.), 1×10^6 MG-63/Akaluc/sgCTRL or MG-63/Akaluc/sgLPAR #1 cells were intravenously injected, 3 hours and 7 days after, 100 μL of 5 mM AkaLumine-HCL was intraperitoneally injected and in vivo luminescence imaging (bioluminescent imaging, BLI) was carried out. The BLI was carried out by using an IVIS imaging system (PerkinElmer, Inc.). […] On the day of intravenous injection of cells (Day 0), the both types of cells were captured in lungs to the same degree.
Next, effects of an LPAR1 antagonist was examined. Analysis with a mouse model was carried out by using ONO-7300243 (Cayman Chemical Company), which is one of LPAR1 inhibitors. […] In the experiment, ONO-7300243 was used at different doses of 10 mg/kg and 30 mg/kg.
The BLI was carried out for 1.5 to 3 hours, 1 day, and 2 days after the administration (FIG. 6B). Immediately after the administration, it was observed that HuO9/Akaluc cells were captured in lungs at any dose.

[1] = tested on: human glioblastoma cells Onda7, YKG-1, and 42-MG-BA; assay: Glioblastoma cell viability with LPAR1 antagonists, CellTiter-Gro; type: cell-based; conditions: different concentrations, 72 hours; Onda7, YKG-1, 42-MG-BA
Experimental: Next, examination was carried out to determine whether LPAR1 antagonists had effects on viabilities of glioblastoma cells. On a 96-well plate, 1500 to 3000 cells of each of the human glioblastoma cells Onda7, YKG-1, and 42-MG-BA were seeded and treated with any of the LPAR1 antagonists Ki16425, BMS-986020, and ONO-7300243 in different concentrations, and the cell viabilities 72 hours thereafter were determined with CellTiter-Gro reagent (FIG. 10A).

[2] = tested on: MG-63, HuO9, or G-292 cells; assay: Transwell chamber migration ability of osteosarcoma cells with LPA as chemoattractant; type: cell-based, human; conditions: 4 to 6 hours, MG-63, HuO9, G-292
Experimental: Next, the influence of LPA on migration ability and invasive ability was analyzed (FIG. 3C). Analysis of migration ability was carried out by using a Transwell chamber (Corning Incorporated, 8.0 μm pore). In an insert, 1×10^5 MG-63, HuO9, or G-292 cells suspended in 0.3 mL of serum-free MEM medium were seeded with 10 nM LPA as a chemoattractant in 1.25 mL of serum-free MEM medium put in the lower chamber, left to stand for 4 to 6 hours and then fixed, and subjected to analysis of migration ability (LPA). Separately, cells after being pretreated with 100 nM Ki16425 (Santa Cruz Biotechnology, Inc.), which is an LPAR antagonist, for 1 hour were collected, seeded in an insert, and subjected to analysis of migration ability in the presence of 100 nM Ki16425 (LPA+Ki16425).

[3] = tested on: human glioblastoma cells Onda7, YKG-1, and 42-MG-BA; assay: Transwell chamber migration ability of glioblastoma cells with LPA; type: cell-based; conditions: 24 hours
Experimental: Accordingly, the effects of LPAR1 antagonists to suppress metastasis and cell proliferation are also expected to be exerted for glioma. In view of the fact that glioblastoma is the highest malignancy tumor among gliomas as described above, migration ability with addition of LPA was analyzed with glioblastoma cell strains. Analysis was performed to determine whether the mobility of glioblastoma cells is augmented in the presence of LPA. In a Transwell chamber, the human glioblastoma cells Onda7 (obtained from JCRB Cell Bank), YKG-1 (obtained from JCRB Cell Bank), and 42-MG-BA (obtained from DSMZ) were seeded at 1×10^5 cells each, with addition of 100 nM LPA as a migration factor to the underlying chamber, and 24 hours thereafter cells that migrated to the underlying chamber were stained with crystal violet and quantified. Before being collected, the cells were pretreated with 100 nM Ki16425, which is an LPAR antagonist, for 1 hour, and subjected to analysis of migration ability still in the presence of 100 nM Ki16425.

MG-63 cells = assay: Immunostaining of phosphorylated AKT and F-actin in LPA-treated osteosarcoma cells; type: cell-based, human; conditions: 100 nM LPA for 4 hours, serum-free MEM
Experimental: LPA receptors are G-protein-coupled receptors, and LPAR1 is known to activate three G proteins, Gαi/0, Gαq/11, and Gα12/13, and to activate a signal transduction system including a PI3K/AKT pathway. MG-63 cells were cultured with serum-free MEM medium overnight, then treated with 100 nM LPA for 4 hours, immunostained through a conventional method with an anti-phosphorylated AKT antibody (an antibody to detect phosphorylation of S473), rhodamine-labeled phalloidin (for binding to F actin), and Hoechst 33342 (for staining nuclei), and observed with a microscope (FIG. 3B). […] Although results are not shown herein, time-lapse analysis with a microscope was carried out to analyze effects of LPA on osteosarcoma cells, and it was observed that osteosarcoma cells formed numerous protrusions (pseudopodia) as a result of the LPA treatment.

G-292 and MG-63 cells = assay: Cell viability / cytotoxicity of osteosarcoma cells with Ki16425 (FIG. 3E); type: cell-based, human
Experimental: (§1) In addition, analysis of invasive ability was carried out by using a Matrigel Invasion Chamber in the same manner as for FIG. 1C (FIG. 3D). […] Accordingly, the reduction in migration ability and invasive ability due to Ki16425 was confirmed not to be caused by cytotoxicity to the cells.

[4] = tested on: osteosarcoma cells MG-63, HuO9, and G-292; assay: Matrigel Invasion Chamber invasive ability of osteosarcoma cells with platelet releasate; type: cell-based, human; conditions: cells treated with Ki16425 in advance (100 nM), platelet releasate in underlying chamber, 22 to 24 hours
Experimental: The osteosarcoma cells MG-63, HuO9, and G-292 were each seeded in an insert (upper chamber) of a Matrigel Invasion Chamber (Corning Incorporated) at 1.5×10^5 cells/0.5 mL with the platelet releasate put in the lower chamber, and left to stand at 37° C. for 22 to 24 hours, and then cells on the top surface of the insert were completely wiped away, fixation was performed with 4% paraformaldehyde, and cells on the bottom surface of the membrane of the insert, i.e., invaded cells were stained with 1% crystal violet (FIG. 1B).
as §1

LPAR1 = LPAR1 (Homo sapiens, UniProt Q92633); conditions: cited from earlier work
LPAR2 = LPAR2 (Homo sapiens, UniProt Q9HBW0); conditions: cited from earlier work
LPAR3 = molecular target: T1, LPAR3 (Homo sapiens, UniProt Q9UBY5); conditions: cited from earlier work
T1 sequence (Q9UBY5 1-353): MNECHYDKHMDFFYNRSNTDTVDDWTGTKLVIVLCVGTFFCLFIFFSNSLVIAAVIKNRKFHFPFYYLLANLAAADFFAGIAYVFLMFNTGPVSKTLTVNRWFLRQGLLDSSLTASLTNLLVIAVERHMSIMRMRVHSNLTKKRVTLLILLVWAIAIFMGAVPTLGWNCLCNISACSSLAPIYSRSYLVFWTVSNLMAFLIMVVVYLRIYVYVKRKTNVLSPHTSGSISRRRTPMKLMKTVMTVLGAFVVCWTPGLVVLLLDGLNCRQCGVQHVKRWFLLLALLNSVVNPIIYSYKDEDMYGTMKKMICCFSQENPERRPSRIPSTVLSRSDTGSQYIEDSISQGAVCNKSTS

osteosarcoma cells G-292 = assay: Osteosarcoma G-292 subcutaneous xenograft model, tumor volume; type: in vivo; conditions: oral 30 mg/kg, 5 consecutive days and withdrawal for 2 days from Day 1, from Day 14, SCID-beige mouse
Experimental: Into each female SCID-beige mouse, 8.2×10^5 cells of the osteosarcoma cells G-292 were subcutaneously transplanted (Day 0), and on the day after the transplantation (Day 1) oral administration according to a dosing schedule of continuous administration of the LPAR1 antagonist BMS-986020 of 30 mg/kg for 5 consecutive days and withdrawal for 2 days was initiated (FIG. 8A). The proliferation of tumor was analyzed by measuring the major axis and minor axis of tumor and calculating the tumor volume as major axis (mm)×[minor axis (mm)]^2×½.

Onda7 cells = assay: Glioblastoma intracranial xenograft model (Onda7 with Akaluc luciferase), IVIS imaging; type: in vivo, mouse; conditions: oral 50 mg/kg or 100 mg/kg, 5 days on/2 days off from 3 weeks after transplantation; from 2 weeks after initiation, even for 50 mg/kg
Experimental: Examination was carried out to determine whether an LPAR1 antagonist exerts antitumor effect even for glioblastoma. Into each female SCID-beige mouse, 2×10^5 Onda7 cells with Akaluc luciferase introduced therein were intracranially transplanted. Three weeks after the transplantation, oral administration according to a dosing schedule of continuous administration of the LPAR1 antagonist BMS-986020 of 50 mg/kg or 100 mg/kg for 5 consecutive days and withdrawal for 2 days was initiated (FIG. 11A). For tumor volume, the enzymatic activity of AkaLuc luciferase stably expressed in Onda7 cells was quantified with an IVIS imaging system (FIG. 11B).

Chain of LPAR2 (Q9HBW0 whole entry, species assumed): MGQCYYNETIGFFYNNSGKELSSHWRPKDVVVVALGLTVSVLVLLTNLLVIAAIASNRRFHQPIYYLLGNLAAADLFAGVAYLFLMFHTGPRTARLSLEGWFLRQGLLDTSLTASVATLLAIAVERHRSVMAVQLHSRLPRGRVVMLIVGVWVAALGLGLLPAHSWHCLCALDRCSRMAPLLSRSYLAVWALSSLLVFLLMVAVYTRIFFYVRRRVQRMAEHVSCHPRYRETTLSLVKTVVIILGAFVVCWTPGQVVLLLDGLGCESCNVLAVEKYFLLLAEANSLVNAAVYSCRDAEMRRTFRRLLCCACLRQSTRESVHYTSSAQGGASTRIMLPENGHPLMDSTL
Chain of LPAR1 (Q92633 whole entry, species assumed): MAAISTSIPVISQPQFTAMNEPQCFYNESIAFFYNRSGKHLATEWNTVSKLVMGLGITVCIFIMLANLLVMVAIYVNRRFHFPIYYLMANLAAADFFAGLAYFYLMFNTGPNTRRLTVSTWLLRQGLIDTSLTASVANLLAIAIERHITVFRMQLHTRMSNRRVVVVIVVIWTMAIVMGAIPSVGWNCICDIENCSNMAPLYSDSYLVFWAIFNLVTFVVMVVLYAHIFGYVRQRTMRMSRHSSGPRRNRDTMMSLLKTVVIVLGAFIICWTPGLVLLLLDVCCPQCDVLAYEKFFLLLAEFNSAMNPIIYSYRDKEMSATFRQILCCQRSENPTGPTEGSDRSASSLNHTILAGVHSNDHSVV

COc1cc(C(=O)N(CCCc2ccccc2)Cc2ccc(CC(=O)O)cc2)cc(OC)c1C [ONO-7300243]
Total Flux measured with the IVIS (HuO9/Akaluc cells; Day 1, 30 mg/kg administration group vs solvent administration group): significant difference | Total Flux measured with the IVIS (HuO9/Akaluc cells; Day 2, 10 mg/kg administration group vs 30 mg/kg administration group): significant difference | Total Flux measured with the IVIS (HuO9/Akaluc cells; day of injection of cells, among the groups): no significant difference | osteosarcoma cells captured in lungs (BLI) / lung metastasis (HuO9/Akaluc cells; oral 10 mg/kg and 30 mg/kg before i.v. HuO9/Akaluc cells, a day or two later, vs solvent administration group): lung metastasis is suppressed; also recorded: reduction of osteosarcoma cells captured in lungs | cell viabilities [1]: Reduced cell viabilities

lysophosphatidic acid [LPA]
migration ability (effect of LPA) ([2]; 10 nM LPA as chemoattractant): migration ability largely enhanced | migration ability (effect of LPA) ([3]; 100 nM LPA as migration factor): migration ability was largely enhanced | phosphorylated AKT (S473) (MG-63 cells): Activated AKT was found

Cc1noc(-c2ccc(CSCCC(=O)O)cc2)c1NC(=O)OC(C)c1ccccc1Cl (stereo not drawn) [Ki16425]
migration ability ([2]; 100 nM Ki16425 (1 hour pretreatment and during assay), 10 nM LPA in lower chamber): cancellation of the effects of LPA; also recorded: largely reduced migration ability | cytotoxicity (G-292 and MG-63 cells; 100 nM, 4 to 6 hours (migration) or 22 to 24 hours (invasion)): no cytotoxicity was found | cell viabilities (G-292 and MG-63 cells; cultured for 72 hours, Ki16425 at 500 nM or more, G-292 and MG-63): reduced cell viabilities | invasive ability [4]: cancellation of the effects of platelet releasate; also recorded: largely reduced invasive ability | migration ability ([3]; 100 nM Ki16425 (1 hour pretreatment and during assay), 100 nM LPA): largely reduced migration ability | inhibitory effect to LPAR1 (LPAR1): exhibits inhibitory effect | cell viabilities [1]: Reduced cell viabilities | inhibitory effect to LPAR2 (LPAR2): exhibits inhibitory effect | inhibitory effect to LPAR3 (LPAR3): exhibits inhibitory effect

Cc1noc(-c2ccc(-c3ccc(C4(C(=O)O)CC4)cc3)cc2)c1NC(=O)O[C@H](C)c1ccccc1 [BMS-986020]
cell viabilities [1]: Reduced cell viabilities | tumor volume / tumor proliferation (osteosarcoma cells G-292; 30 mg/kg): significant tumor proliferation-suppressing effect | tumor volume / tumor proliferation (osteosarcoma cells G-292; listed as BMS986020, 30 mg/kg): tumor proliferation is suppressed | proliferation of glioblastoma cells / relative tumor volume (Onda7 cells): almost comparable to that at the transplantation
